Assays:
Assay type in all cases: physicochemical
[1] = Three month stability and forced degradation study: solid form by XRPD after storage; details: for XRPD: Replicate 1
Protocol: X-Ray Powder Diffraction patterns were collected on a Bruker D8 diffractometer using Cu Kα radiation (40 kV, 40 mA), θ-2θ goniometer, and divergence of V4 and receiving slits, a Ge monochromator and a Lynxeye detector. The instrument is performance checked using a certified Corundum standard (NIST 1976). The software used for data collection was Diffrac Plus XRD Commander v2.6.1 and the data were analysed and presented using Diffrac Plus EVA v15.0.0.0.
Samples were run under ambient conditions as flat plate specimens using powder as received. The sample was gently packed into a cavity cut into polished, zero-background (510) silicon wafer. The sample was rotated in its own plane during analysis. The details of the data collection are: • Angular range: 2 to 42° 2θ • Step size: 0.05° 2θ • Collection time: 0.5 s/step HPLC
(§1) […] The samples were prepared in duplicate with an offset of 2 weeks. Each replicate was stored in a different container.
(§2) Replicate 1 was charged in an open HPLC vial that was placed in a sealed scintillation vial containing a saturated solution of the relevant inorganic salt (Table 2). These samples were analysed by HPLC, 1H NMR, XRPD and Polarized Light Microscopy (PLM) at 4, 8, and 12 week time points.

[2] = Three month stability and forced degradation study: HPLC purity of stored solids; details: for Known Impurity* (%) (nicotinamide, RRT = 1.73 min) / Purity (%): HPLC
Protocol: Purity analysis was performed on an Agilent HP1100 series system equipped with a diode array detector and using ChemStation software vB.04.03 using the method detailed below in Table 1.
as §1, §2
(§3) Replicate 2 was stored in sealed box with a recipient containing a saturated solution of the relevant inorganic salt (Table 2). These samples were analysed by HPLC at 2, 6, 10 and 12 week time points. Samples at 25° C./0% RH were stored in a sealed box containing a desiccant agent (P2O5).

[3] = Three month stability and forced degradation study: visual observations of stored solids
Protocol: as §1, §2, §3

[4] = Three month stability and forced degradation study: particle morphology by polarised light microscopy (PLM); details: Replicate 1
Protocol: Samples were studied on a Leica LM/DM polarised light microscope with a digital video camera for image capture. A small amount of each sample was placed on a glass slide, 15 mounted in immersion oil and covered with a glass slip, the individual particles being separated as well as possible. The sample was viewed with appropriate magnification and partially polarised light, coupled to a λ false-color filter.
as §1, §2

[5] = solid stored 25° C., 0% RH, 4 weeks
[6] = solid stored 25° C., 0% RH, 8 weeks
[7] = solid stored 25° C., 0% RH, 12 weeks
[8] = solid stored 25° C., 60% RH, 4 weeks
[9] = solid stored 25° C., 60% RH, 8 weeks
[10] = solid stored 25° C., 60% RH, 12 weeks
[11] = solid stored 25° C., 97% RH, 4 weeks
[12] = solid stored 25° C., 97% RH, 8 weeks
[13] = solid stored 25° C., 97% RH, 12 weeks
[14] = solid stored 40° C., 75% RH, 4 weeks
[15] = solid stored 40° C., 75% RH, 8 weeks
[16] = solid stored 40° C., 75% RH, 12 weeks
[17] = solid stored 25° C., 0% RH, 4 weeks, Replicate 1
[18] = solid stored 25° C., 0% RH, 8 weeks, Replicate 1
[19] = solid stored 25° C., 0% RH, 12 weeks, Replicate 1
[20] = solid stored 25° C., 0% RH, 12 weeks, Replicate 1, listed as Crystalline Form 1
[21] = solid stored 25° C., 60% RH, 2 weeks, Replicate 2
[22] = solid stored 25° C., 60% RH, 4 weeks, Replicate 1
[23] = solid stored 25° C., 60% RH, 6 weeks, Replicate 2
[24] = solid stored 25° C., 60% RH, 8 weeks, Replicate 1
[25] = solid stored 25° C., 60% RH, 10 weeks, Replicate 2
[26] = solid stored 25° C., 60% RH, 12 weeks, Replicate 1
[27] = solid stored 25° C., 60% RH, 12 weeks, Replicate 2
[28] = solid stored 25° C., 97% RH, 2 weeks, Replicate 2
[29] = solid stored 25° C., 97% RH, 4 weeks, Replicate 1
[30] = solid stored 25° C., 97% RH, 6 weeks, Replicate 2
[31] = solid stored 25° C., 97% RH, 8 weeks, Replicate 1
[32] = solid stored 25° C., 97% RH, 10 weeks, Replicate 2
[33] = solid stored 25° C., 97% RH, 12 weeks, Replicate 1
[34] = solid stored 25° C., 97% RH, 12 weeks, Replicate 2
[35] = solid stored 40° C., 75% RH, 2 weeks, Replicate 2
[36] = solid stored 40° C., 75% RH, 4 weeks, Replicate 1
[37] = solid stored 40° C., 75% RH, 6 weeks, Replicate 2
[38] = solid stored 40° C., 75% RH, 8 weeks, Replicate 1
[39] = solid stored 40° C., 75% RH, 10 weeks, Replicate 2
[40] = solid stored 40° C., 75% RH, 12 weeks, Replicate 1
[41] = solid stored 40° C., 75% RH, 12 weeks, Replicate 2
[42] = t = 0, baseline of the stability study, listed as RME-1304-063-01

SMILES: NC(=O)c1ccc[n+]([C@@H]2O[C@H](COP(=O)([O-])O)[C@@H](O)[C@H]2O)c1 [RME-1304-63-01, β-nicotinamide mononucleotide]
- solid form and particle morphology after storage ([1]; all conditions tested): remained unchanged
- XRPD [1, 5]: Unchanged
- XRPD [1, 6]: Unchanged
- XRPD [1, 7]: Unchanged
- XRPD [1, 8]: Unchanged
- XRPD [1, 9]: Unchanged
- XRPD [1, 10]: Unchanged
- XRPD [1, 11]: Unchanged
- XRPD [1, 12]: Unchanged
- XRPD [1, 13]: Unchanged
- XRPD [1, 14]: Unchanged
- XRPD [1, 15]: Unchanged
- XRPD [1, 16]: Unchanged
- chemical purity after storage ([2]; 4 weeks of storage at all the tested conditions): ~99.3%
- Known Impurity* (%) (nicotinamide, RRT = 1.73 min) [2, 17]: 0.25%
- Purity (%) [2, 17]: 99.4%
- Known Impurity* (%) (nicotinamide, RRT = 1.73 min) [2, 18]: 0.33%
- Purity (%) [2, 18]: 99.2%
- Known Impurity* (%) (nicotinamide, RRT = 1.73 min) [2, 19]: 0.38%
- Purity (%) [2, 19]: 98.9%
- Known Impurity* (%) (nicotinamide, RRT = 1.73 min) [2, 20]: 0.38%
- Purity (%) [2, 20]: 98.9%
- Known Impurity* (%) (nicotinamide, RRT = 1.73 min) [2, 21]: 0.19%
- Purity (%) [2, 21]: 99.6%
- Known Impurity* (%) (nicotinamide, RRT = 1.73 min) [2, 22]: 0.34%
- Purity (%) [2, 22]: 99.3%
- Known Impurity* (%) (nicotinamide, RRT = 1.73 min) [2, 23]: 0.21%
- Purity (%) [2, 23]: 99.5%
- Known Impurity* (%) (nicotinamide, RRT = 1.73 min) [2, 24]: 0.63%
- Purity (%) [2, 24]: 98.9%
- Known Impurity* (%) (nicotinamide, RRT = 1.73 min) [2, 25]: 0.35%
- Purity (%) [2, 25]: 99.1%
- Known Impurity* (%) (nicotinamide, RRT = 1.73 min) [2, 26]: 0.98%
- Purity (%) [2, 26]: 98.2%
- Known Impurity* (%) (nicotinamide, RRT = 1.73 min) [2, 27]: 0.23%
- Purity (%) [2, 27]: 98.8%
- Known Impurity* (%) (nicotinamide, RRT = 1.73 min) [2, 28]: 0.22%
- Purity (%) [2, 28]: 99.5%
- Known Impurity* (%) (nicotinamide, RRT = 1.73 min) [2, 29]: 0.49%
- Purity (%) [2, 29]: 99.3%
- Known Impurity* (%) (nicotinamide, RRT = 1.73 min) [2, 30]: 0.38%
- Purity (%) [2, 30]: 99.4%
- Known Impurity* (%) (nicotinamide, RRT = 1.73 min) [2, 31]: 1.38%
- Purity (%) [2, 31]: 98.3%
- Known Impurity* (%) (nicotinamide, RRT = 1.73 min) [2, 32]: 0.77%
- Purity (%) [2, 32]: 98.6%
- Known Impurity* (%) (nicotinamide, RRT = 1.73 min) [2, 33]: 3.46%
- Purity (%) [2, 33]: ~95.8^$ %
- Purity (%) ([2]; solid stored 25° C., 97% RH, 12 weeks, Replicate 1, listed as Crystalline Form 1): 95.8%
- Known Impurity* (%) (nicotinamide, RRT = 1.73 min) [2, 34]: 0.55%
- Purity (%) [2, 34]: 98.4%
- Known Impurity* (%) (nicotinamide, RRT = 1.73 min) [2, 35]: 0.22%
- Purity (%) [2, 35]: 99.5%
- Known Impurity* (%) (nicotinamide, RRT = 1.73 min) [2, 36]: 0.46%
- Purity (%) [2, 36]: 99.2%
- Known Impurity* (%) (nicotinamide, RRT = 1.73 min) [2, 37]: 0.27%
- Purity (%) [2, 37]: 99.4%
- Known Impurity* (%) (nicotinamide, RRT = 1.73 min) [2, 38]: 1.38%
- Purity (%) [2, 38]: 97.7%
- Known Impurity* (%) (nicotinamide, RRT = 1.73 min) [2, 39]: 0.49%
- Purity (%) [2, 39]: 98.8%
- Known Impurity* (%) (nicotinamide, RRT = 1.73 min) [2, 40]: 3.46%
- Purity (%) [2, 40]: 90.7%
- Known Impurity* (%) (nicotinamide, RRT = 1.73 min) [2, 41]: 0.77%
- Purity (%) [2, 41]: 97.4%
- HPLC purity profile, Area % of main peak (RRT 1.00) [2, 42]: 99.52 Area %
- HPLC purity profile, Area % of peak at RRT 1.76 / 1.74 (nicotinamide) [2, 42]: 0.12 Area %
- nicotinamide impurity ([2]; time 0): 0.12%
- Purity ([2]; time 0, listed as Crystalline Form 1): 99.5%
- Observations [3, 17]: white solid
- Observations [3, 18]: white solid
- Observations [3, 19]: white solid
- Observations [3, 21]: white solid
- Observations [3, 22]: light brown
- Observations [3, 23]: light brown
- Observations [3, 24]: light brown
- Observations [3, 25]: light brown
- Observations [3, 26]: light brown
- Observations [3, 27]: light brown
- Observations [3, 28]: white solid
- Observations [3, 29]: white solid
- Observations [3, 30]: white solid,
- Observations [3, 31]: white solid
- Observations [3, 32]: white solid, wet
- Observations [3, 33]: white solid,
- Observations [3, 34]: white solid, wet
- Observations [3, 35]: white solid
- Observations [3, 36]: white solid
- Observations [3, 37]: white solid
- Observations [3, 38]: white solid
- Observations [3, 39]: light brown
- Observations [3, 40]: brown solid,
- Observations [3, 41]: light brown
- PLM [4, 5]: acicular
- PLM [4, 6]: acicular
- PLM [4, 7]: acicular
- PLM [4, 8]: acicular
- PLM [4, 9]: acicular
- PLM [4, 10]: acicular
- PLM [4, 11]: acicular
- PLM [4, 12]: acicular
- PLM [4, 13]: acicular
- PLM [4, 14]: acicular
- PLM [4, 15]: acicular
- PLM [4, 16]: acicular
